These results are taken from patent US6468991B1, “Method of treating rhinoviral infections” (Cyclis Pharmaceuticals, Inc., priority 1997, dated 2002).

Like-named read-outs stand apart in the source and are kept apart here.

One data set has as its system Rhinovirus Type 2. The experiment in a line: Rhinovirus yield reduction assay. The conditions noted are these: for ED50 (virus yield): second experiment.
Data set [1] has as its system Rhinovirus (RV) type 2, strain GPH. The experiment in a line: Cytopathogenic effect (CPE) inhibition assay. To be noted: for EC50: A549 cells. A general note: Protection from cytopathic effect is a common read-out in antiviral testing.
Method: Cells: A-549 (human lung carcinoma) cells were obtained from the American Type Culture Collection (ATCC, Rockville, Md.). They were grown in Dulbecco's Minimum Essential Medium (DMEM, Gibco, Gaithersburg, Md.) supplemented with 10% fetal bovine serum (FBS, HyClone Laboratories, Logan, Utah). When the cells were infected with virus, the test medium contained 2% FBS with 0.1% NaHCO3 and 50 μg gentamicin/ml.
Virus: Rhinovirus (RV) type 2, strain GPH was obtained from the ATCC. The virus was passed in cells and a pool prepared, ampuled, and frozen at −80° C. An aliquot of the frozen virus was titrated in A-549 cells prior to use in the following experiments.
A portion of the original solution was then diluted 1:3.95 in DMEM to provide a final concentration of 632 μM.
In both treatment methods, cells were plated in 96-well flat-bottomed tissue culture microplates (Corning Glass Works, Corning, N.Y.) at 5×10^4 cells/well in DMEM growth medium, and incubated overnight at 37° C. to establish cell monolayers in each well. […] Approximately 5-10 minutes later, four wells at each drug concentration were exposed to 0.1 ml of test medium with virus, with two additional wells exposed to 0.1 ml of sterile medium only, the latter to serve as toxicity controls. A group of 6 infected wells received no test compound to serve as virus controls, and 6 additional wells received sterile medium only as normal cell controls.
In the first treatment method, the test compound was added to the cells immediately prior to virus exposure and remained on the cells until viral cytopathogenic effect (CPE) was determined. In the second treatment method, fresh test compound (diluted in medium) was added to the cells daily, after removing the previous medium, until such time as the CPE was measured.
The CPE from each well was scored from 0 (normal cells) to 4 (maximal, 100%, CPE). Morphological changes due to cytotoxicity were determined microscopically; this was graded as T (100% toxicity characterized by complete cell sloughing from plate), PVH (80% cytotoxicity), PH (60% cytotoxicity), P (40% cytotoxicity), PSI (20% cytotoxicity) and 0 (normal cells). Fifty percent effective (virus-inhibitory) doses (ED50) and 50% cytotoxic doses (CD50) were calculated by regression analysis for the CPE inhibition experiment.
In data set [2] the test system is A-549 (human lung carcinoma) cells. The data set can be described thus: Cytotoxicity by microscopic morphological changes in uninfected toxicity control wells.
Where [3] appears, read: drug present without medium change.

Method for Rhinovirus Type 2: After the second experiment, the microplate was frozen at −70° C., then thawed and the medium removed from the virus-infected wells and individually assayed for virus titer by adding 0.2 ml of serial 10-fold dilutions to a fresh monolayer of cells. The viral CPE, read 6 days later, was used as an infectivity endpoint.

Turning to “2′,3′-cyclophosphateadenylyl(2′,5′)adenylyl-(2′,5′)adenosine [Papirine AIII]”, the “conclusion on inhibition of type 2 rhinovirus” value with Rhinovirus Type 2 (overall conclusion from CPE and virus yield results) is on record as “significant inhibitor of type 2 rhinovirus”. In the data set on Rhinovirus Type 2 (same whether compound left on the cells or freshly added daily), the “ED90 concentration (virus yield)” value is 8 µM. The “ED50 (virus yield)” value in the data set with Rhinovirus Type 2 (drug changed every 24 hours) and in the data set with Rhinovirus Type 2 (setting [3]) was 8 µM in each case. In data set [1] (both methods, both experiments, compared with ribavirin), the “inhibition of viral CPE” value is recorded as “significant inhibition of viral CPE was seen that exceeded the activity of the known positive inhibitor, ribavirin”. Also, the EC50 in data set [1] (read-out: ED50, Expt. 1, 5 days' incubation at 37° C., drug changed every 24 hours) came out at 24 µM; in data set [1] (read-out: ED50, Expt. 1, 5 days' incubation at 37° C., drug present without medium change) it was 25 µM; in data set [1] (read-out: ED50, Expt. 2, 3 days' incubation at 37° C., drug changed every 24 hours) it was 63 µM; in data set [1] (read-out: ED50, Expt. 2, 3 days' incubation at 37° C., drug present without medium change) it was 63 µM. In data set [2] (both experiments, A549 cells), the cytotoxicity observed entry is on record as “no cytotoxicity was observed”.
`NC(=O)c1ncn([C@@H]2O[C@H](CO)[C@@H](O)[C@H]2O)n1` [Ribavirin]: the “ED50 (virus yield)” value with Rhinovirus Type 2 (drug changed every 24 hours) came out at 102 µM; in the data set on Rhinovirus Type 2 (setting [3]) it was 53 µM. For the same compound, the EC50 amounted to 410 µM in data set [1] (Enterovirus, A549, 72 h, read-out: ED50, Expt. 2, 3 days' incubation at 37° C., drug present without medium change); 610 µM in data set [1] (Enterovirus, A549, 120 h, read-out: ED50, Expt. 1, 5 days' incubation at 37° C., drug present without medium change); 1190 µM in data set [1] (Enterovirus, A549, read-out: ED50, Expt. 1, 5 days' incubation at 37° C., drug changed every 24 hours); 186 µM in data set [1] (Enterovirus, A549, read-out: ED50, Expt. 2, 3 days' incubation at 37° C., drug changed every 24 hours). The CD50 in data set [2] (Expt. 1, 5 days' incubation at 37° C., drug changed every 24 hours, A549 cells) turned out to be 2290 µM; in data set [2] (Expt. 1, 5 days' incubation at 37° C., drug present without medium change, A549 cells), 2290 µM; in data set [2] (Expt. 2, 3 days' incubation at 37° C., drug changed every 24 hours, A549 cells), 740 µM; in data set [2] (Expt. 2, 3 days' incubation at 37° C., drug present without medium change, A549 cells) it was 740 µM; in data set [2] (Table 2, second experiment, drug changed every 24 hours), 740 µM; in data set [2] (Table 2, second experiment, drug present without medium change), 740 µM.
